# Values of other authors as cited in US8440702B2, “1,3-oxazolidin -2-one derivatives useful as CETP inhibitors” (Merck Sharp & Dohme Corp., priority 2005, dated 2013).
# Conditions: clinical trials terminated
smiles,measurement,value
CCOC(=O)N1c2ccc(C(F)(F)F)cc2[C@@H](N(Cc2cc(C(F)(F)F)cc(C(F)(F)F)c2)C(=O)OC)C[C@H]1CC [torcetrapib],mortality in patients using the drug during outcomes studies,increased mortality
